{
  "source": "ChEMBL document CHEMBL4507272",
  "about": "(2021)",
  "key": {"[1]": {"target": "Casein kinase I isoform delta (Homo sapiens) (UniProt P48730)", "details": "Compound concentration 1000.0 nM"}, "[2]": {"target": "Interferon-induced, double-stranded RNA-activated protein kinase (Homo sapiens) (UniProt P19525)", "sequence (P19525 whole entry)": "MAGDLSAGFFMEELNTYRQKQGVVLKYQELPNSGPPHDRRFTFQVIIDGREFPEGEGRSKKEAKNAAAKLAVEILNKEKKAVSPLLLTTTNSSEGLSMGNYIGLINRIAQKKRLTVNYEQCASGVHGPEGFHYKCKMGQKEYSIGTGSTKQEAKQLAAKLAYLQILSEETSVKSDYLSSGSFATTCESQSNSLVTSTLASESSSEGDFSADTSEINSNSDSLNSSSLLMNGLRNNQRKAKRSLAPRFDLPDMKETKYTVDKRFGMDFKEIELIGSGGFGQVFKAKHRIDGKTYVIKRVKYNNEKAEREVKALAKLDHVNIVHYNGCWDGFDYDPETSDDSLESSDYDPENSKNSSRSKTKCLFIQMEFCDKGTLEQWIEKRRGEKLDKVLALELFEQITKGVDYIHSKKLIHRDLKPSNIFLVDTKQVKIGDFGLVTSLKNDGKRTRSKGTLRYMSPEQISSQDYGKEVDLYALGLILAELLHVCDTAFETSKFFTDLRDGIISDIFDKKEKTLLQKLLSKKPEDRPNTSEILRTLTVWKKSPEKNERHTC", "details": "Compound concentration 1000.0 nM"}, "[3]": {"target": "Alpha-1B adrenergic receptor (Homo sapiens) (UniProt P35368)", "details": "Compound concentration 10.0 uM"}, "[4]": {"target": "Phosphatidylinositol 4,5-bisphosphate 3-kinase catalytic subunit alpha isoform (Homo sapiens) (UniProt P42336)", "details": "Compound concentration 1000.0 nM"}, "[5]": {"target": "Wee1-like protein kinase 2 (Homo sapiens) (UniProt P0C1S8)", "details": "Compound concentration 1000.0 nM"}, "[6]": {"system": "Receptor-type tyrosine-protein kinase FLT3 (Homo sapiens), P36888 [UNDEFINED MUTATION]", "details": "Compound concentration 1000.0 nM"}, "[7]": {"target": "GABA-A receptor; anion channel (Rattus norvegicus) (UniProt O09028+P15431+P18506+P18508+P19969+P20236+P23574+P23576+P28471+P28473+P30191+P62813+P63079+P63138+Q91ZM7+Q9ES14)", "details": "Compound concentration 10.0 uM"}, "[8]": {"target": "Serine/threonine-protein kinase N2 (Homo sapiens) (UniProt Q16513)", "details": "Compound concentration 1000.0 nM"}, "[9]": {"target": "T1, Histamine H3 receptor (Homo sapiens, UniProt Q9Y5N1)", "T1 sequence (Q9Y5N1 whole entry)": "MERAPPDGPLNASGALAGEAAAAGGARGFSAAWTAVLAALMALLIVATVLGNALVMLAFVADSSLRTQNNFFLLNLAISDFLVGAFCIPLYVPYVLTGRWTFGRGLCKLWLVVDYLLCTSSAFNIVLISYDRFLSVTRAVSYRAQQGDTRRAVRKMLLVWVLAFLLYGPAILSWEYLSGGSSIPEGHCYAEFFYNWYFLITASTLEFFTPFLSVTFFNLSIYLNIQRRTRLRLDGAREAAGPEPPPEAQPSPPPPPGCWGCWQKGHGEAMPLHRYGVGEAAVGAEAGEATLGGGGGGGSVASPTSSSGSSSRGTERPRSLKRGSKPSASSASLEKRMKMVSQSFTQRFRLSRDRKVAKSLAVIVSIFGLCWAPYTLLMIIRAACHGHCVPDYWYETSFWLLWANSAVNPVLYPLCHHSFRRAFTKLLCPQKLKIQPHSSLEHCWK", "details": "Compound concentration 10.0 uM"}, "[10]": {"target": "Mitogen-activated protein kinase 9 (Homo sapiens) (UniProt P45984)", "details": "Compound concentration 1000.0 nM"}, "[11]": {"target": "RAC-beta serine/threonine-protein kinase (Homo sapiens) (UniProt P31751)", "details": "Compound concentration 1000.0 nM"}, "[12]": {"target": "Mitogen-activated protein kinase kinase kinase 15 (Homo sapiens) (UniProt Q6ZN16)", "details": "Compound concentration 1000.0 nM"}, "[13]": {"target": "Alpha-2C adrenergic receptor (Homo sapiens) (UniProt P18825)", "details": "Compound concentration 10.0 uM"}, "[14]": {"target": "Cyclin-dependent kinase 19 (Homo sapiens) (UniProt Q9BWU1)", "details": "Compound concentration 1000.0 nM"}, "[15]": {"target": "Serine/threonine-protein kinase tousled-like 1 (Homo sapiens) (UniProt Q9UKI8)", "details": "Compound concentration 1000.0 nM"}, "[16]": {"target": "5-hydroxytryptamine receptor 5A (Homo sapiens) (UniProt P47898)", "details": "Compound concentration 10.0 uM"}, "[17]": {"target": "Serine/threonine-protein kinase MRCK beta (Homo sapiens) (UniProt Q9Y5S2)", "details": "Compound concentration 1000.0 nM"}, "[18]": {"system": "Receptor-type tyrosine-protein kinase FLT3 (Homo sapiens), P36888 [K663Q]", "details": "Compound concentration 1000.0 nM"}, "[19]": {"system": "Phosphatidylinositol 4,5-bisphosphate 3-kinase catalytic subunit alpha isoform (Homo sapiens), P42336 [C420R]", "details": "Compound concentration 1000.0 nM"}, "[20]": {"target": "Casein kinase II subunit alpha' (Homo sapiens) (UniProt P19784)", "details": "Compound concentration 1000.0 nM"}, "[21]": {"target": "Serine/threonine-protein kinase DCLK1 (Homo sapiens) (UniProt O15075)", "details": "Compound concentration 1000.0 nM"}, "[22]": {"target": "Dual specificity mitogen-activated protein kinase kinase 3 (Homo sapiens) (UniProt P46734)", "details": "Compound concentration 1000.0 nM"}, "[23]": {"target": "Ephrin type-A receptor 8 (Homo sapiens) (UniProt P29322)", "details": "Compound concentration 1000.0 nM"}, "[24]": {"target": "Dual specificity mitogen-activated protein kinase kinase 1 (Homo sapiens) (UniProt Q02750)", "details": "Compound concentration 1000.0 nM"}, "[25]": {"system": "Phosphatidylinositol 4,5-bisphosphate 3-kinase catalytic subunit alpha isoform (Homo sapiens), P42336 [I800L]", "details": "Compound concentration 1000.0 nM"}, "[26]": {"target": "5-hydroxytryptamine receptor 1B (Homo sapiens) (UniProt P28222)", "details": "Compound concentration 10.0 uM"}, "[27]": {"target": "Cyclin-dependent kinase 2 homolog (Plasmodium falciparum (isolate 3D7)) (UniProt P61075)", "details": "Compound concentration 1000.0 nM"}, "[28]": {"system": "Epidermal growth factor receptor (Homo sapiens), P00533 [UNDEFINED MUTATION]", "sequence (P00533 whole entry, looked up, change not shown)": "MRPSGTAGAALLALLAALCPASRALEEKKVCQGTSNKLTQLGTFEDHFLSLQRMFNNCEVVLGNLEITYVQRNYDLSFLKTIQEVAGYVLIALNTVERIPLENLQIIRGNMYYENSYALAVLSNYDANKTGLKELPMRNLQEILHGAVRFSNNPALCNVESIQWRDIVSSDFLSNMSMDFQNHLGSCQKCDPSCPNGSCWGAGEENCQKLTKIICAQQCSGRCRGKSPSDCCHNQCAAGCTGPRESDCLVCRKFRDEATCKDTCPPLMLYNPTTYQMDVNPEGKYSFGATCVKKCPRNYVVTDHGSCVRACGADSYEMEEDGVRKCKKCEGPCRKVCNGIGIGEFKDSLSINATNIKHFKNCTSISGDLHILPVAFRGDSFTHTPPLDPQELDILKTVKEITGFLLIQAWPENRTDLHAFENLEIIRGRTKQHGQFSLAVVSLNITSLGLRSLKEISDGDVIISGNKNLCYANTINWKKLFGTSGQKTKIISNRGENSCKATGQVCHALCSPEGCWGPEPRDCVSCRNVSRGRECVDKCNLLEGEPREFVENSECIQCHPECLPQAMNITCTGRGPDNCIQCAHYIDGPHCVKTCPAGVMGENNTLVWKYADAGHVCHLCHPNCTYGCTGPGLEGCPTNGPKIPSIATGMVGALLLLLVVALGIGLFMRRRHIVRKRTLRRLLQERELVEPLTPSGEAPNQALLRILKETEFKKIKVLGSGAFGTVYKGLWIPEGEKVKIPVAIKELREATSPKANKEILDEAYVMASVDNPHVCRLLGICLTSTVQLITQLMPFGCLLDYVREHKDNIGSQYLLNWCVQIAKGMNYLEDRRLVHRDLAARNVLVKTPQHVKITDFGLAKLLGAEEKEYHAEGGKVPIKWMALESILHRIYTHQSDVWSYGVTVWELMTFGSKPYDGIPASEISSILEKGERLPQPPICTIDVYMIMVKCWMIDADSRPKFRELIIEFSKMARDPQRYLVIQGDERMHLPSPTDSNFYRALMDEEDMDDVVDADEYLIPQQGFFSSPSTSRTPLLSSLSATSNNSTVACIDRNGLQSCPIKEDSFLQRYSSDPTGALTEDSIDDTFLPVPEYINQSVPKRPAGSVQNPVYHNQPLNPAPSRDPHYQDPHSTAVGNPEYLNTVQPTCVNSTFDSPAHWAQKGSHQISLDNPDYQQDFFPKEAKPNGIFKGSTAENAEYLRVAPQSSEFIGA", "details": "Compound concentration 1000.0 nM"}, "[29]": {"target": "Mitogen-activated protein kinase kinase kinase 6 (Homo sapiens) (UniProt O95382)", "sequence (O95382 whole entry)": "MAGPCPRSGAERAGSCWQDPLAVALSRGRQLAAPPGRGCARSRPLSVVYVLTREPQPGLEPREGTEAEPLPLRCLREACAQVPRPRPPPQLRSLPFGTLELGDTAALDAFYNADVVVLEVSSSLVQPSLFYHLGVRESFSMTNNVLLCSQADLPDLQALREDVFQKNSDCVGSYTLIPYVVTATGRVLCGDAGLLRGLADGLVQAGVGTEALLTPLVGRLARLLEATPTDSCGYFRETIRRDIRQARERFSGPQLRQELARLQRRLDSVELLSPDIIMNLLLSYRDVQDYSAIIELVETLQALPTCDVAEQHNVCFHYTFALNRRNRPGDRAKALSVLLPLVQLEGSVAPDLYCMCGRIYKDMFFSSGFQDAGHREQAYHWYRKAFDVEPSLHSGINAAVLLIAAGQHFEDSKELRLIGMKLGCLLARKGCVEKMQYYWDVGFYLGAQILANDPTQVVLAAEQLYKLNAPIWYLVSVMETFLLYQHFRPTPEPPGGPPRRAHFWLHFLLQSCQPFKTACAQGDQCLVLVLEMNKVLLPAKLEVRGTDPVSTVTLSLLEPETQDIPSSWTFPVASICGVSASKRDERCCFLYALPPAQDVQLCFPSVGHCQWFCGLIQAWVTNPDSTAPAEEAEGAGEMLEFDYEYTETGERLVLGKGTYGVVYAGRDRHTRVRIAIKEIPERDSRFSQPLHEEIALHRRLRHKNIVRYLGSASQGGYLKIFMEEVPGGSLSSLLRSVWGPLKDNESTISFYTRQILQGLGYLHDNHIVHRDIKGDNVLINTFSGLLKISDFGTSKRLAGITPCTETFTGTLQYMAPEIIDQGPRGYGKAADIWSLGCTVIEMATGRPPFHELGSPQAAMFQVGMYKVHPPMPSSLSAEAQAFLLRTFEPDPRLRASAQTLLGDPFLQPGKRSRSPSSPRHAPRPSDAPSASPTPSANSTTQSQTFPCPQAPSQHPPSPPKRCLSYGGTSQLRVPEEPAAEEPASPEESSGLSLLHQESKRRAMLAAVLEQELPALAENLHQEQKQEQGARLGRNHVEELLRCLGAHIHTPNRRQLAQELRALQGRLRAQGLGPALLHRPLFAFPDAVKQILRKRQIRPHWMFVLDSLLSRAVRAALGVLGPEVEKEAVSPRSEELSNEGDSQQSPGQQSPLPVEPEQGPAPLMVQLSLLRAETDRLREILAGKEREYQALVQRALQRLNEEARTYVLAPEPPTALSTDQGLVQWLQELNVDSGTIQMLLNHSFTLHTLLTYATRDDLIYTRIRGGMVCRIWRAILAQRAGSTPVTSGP", "details": "Compound concentration 1000.0 nM"}, "[30]": {"target": "T1, Histamine H3 receptor", "experiment": "GPCRScan assay: inhibition of H3", "set-up": "radioligand conc. used [nm] 0.5 – 1.0, parental cells HEK Flp-In"}, "[31]": {"system": "Epidermal growth factor receptor (Homo sapiens), P00533 [UNDEFINED MUTATION]", "details": "Compound concentration 1000.0 nM", "remark": "listed apart in the source"}, "[32]": {"target": "Platelet-derived growth factor receptor beta (Homo sapiens) (UniProt P09619)", "details": "Compound concentration 1000.0 nM"}, "[33]": {"target": "Casein kinase II subunit alpha (Homo sapiens) (UniProt P68400)", "details": "Compound concentration 1000.0 nM"}, "[34]": {"target": "Dual specificity tyrosine-phosphorylation-regulated kinase 1B (Homo sapiens) (UniProt Q9Y463)", "details": "Compound concentration 1000.0 nM"}, "[35]": {"target": "Phosphorylase b kinase gamma catalytic chain, skeletal muscle/heart isoform (Homo sapiens) (UniProt Q16816)", "details": "Compound concentration 1000.0 nM"}, "[36]": {"target": "Tyrosine-protein kinase Fgr (Homo sapiens) (UniProt P09769)", "sequence (P09769 2-529 limits assumed)": "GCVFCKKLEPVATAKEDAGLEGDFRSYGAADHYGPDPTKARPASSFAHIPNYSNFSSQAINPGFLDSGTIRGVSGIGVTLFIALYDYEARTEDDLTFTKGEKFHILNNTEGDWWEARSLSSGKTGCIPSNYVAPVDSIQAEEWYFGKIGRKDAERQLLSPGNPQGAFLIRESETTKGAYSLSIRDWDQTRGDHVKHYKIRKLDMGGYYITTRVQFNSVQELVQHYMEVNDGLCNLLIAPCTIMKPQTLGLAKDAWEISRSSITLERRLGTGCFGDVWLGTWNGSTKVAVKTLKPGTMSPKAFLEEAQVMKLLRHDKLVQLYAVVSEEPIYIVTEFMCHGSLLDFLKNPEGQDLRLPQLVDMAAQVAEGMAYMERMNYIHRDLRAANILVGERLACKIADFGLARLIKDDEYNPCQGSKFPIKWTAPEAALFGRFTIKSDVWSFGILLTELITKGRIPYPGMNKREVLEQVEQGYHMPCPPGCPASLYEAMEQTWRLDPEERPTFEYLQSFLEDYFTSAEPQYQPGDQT", "details": "Compound concentration 1000.0 nM"}, "[37]": {"target": "Casein kinase I isoform alpha-like (Homo sapiens) (UniProt Q8N752)", "details": "Compound concentration 1000.0 nM"}, "[38]": {"target": "Dual specificity mitogen-activated protein kinase kinase 6 (Homo sapiens) (UniProt P52564)", "details": "Compound concentration 1000.0 nM"}, "[39]": {"target": "Serine/threonine-protein kinase RIO1 (Homo sapiens) (UniProt Q9BRS2)", "details": "Compound concentration 1000.0 nM"}, "[40]": {"target": "Proto-oncogene tyrosine-protein kinase Src (Homo sapiens) (UniProt P12931)", "details": "Compound concentration 1000.0 nM"}, "[41]": {"target": "Cyclin-dependent kinase 14 (Homo sapiens) (UniProt O94921)", "details": "Compound concentration 1000.0 nM"}, "[42]": {"system": "Phosphatidylinositol 4,5-bisphosphate 3-kinase catalytic subunit alpha isoform (Homo sapiens), P42336 [Q546K]", "sequence (P42336 whole entry Q546K, canonical isoform)": "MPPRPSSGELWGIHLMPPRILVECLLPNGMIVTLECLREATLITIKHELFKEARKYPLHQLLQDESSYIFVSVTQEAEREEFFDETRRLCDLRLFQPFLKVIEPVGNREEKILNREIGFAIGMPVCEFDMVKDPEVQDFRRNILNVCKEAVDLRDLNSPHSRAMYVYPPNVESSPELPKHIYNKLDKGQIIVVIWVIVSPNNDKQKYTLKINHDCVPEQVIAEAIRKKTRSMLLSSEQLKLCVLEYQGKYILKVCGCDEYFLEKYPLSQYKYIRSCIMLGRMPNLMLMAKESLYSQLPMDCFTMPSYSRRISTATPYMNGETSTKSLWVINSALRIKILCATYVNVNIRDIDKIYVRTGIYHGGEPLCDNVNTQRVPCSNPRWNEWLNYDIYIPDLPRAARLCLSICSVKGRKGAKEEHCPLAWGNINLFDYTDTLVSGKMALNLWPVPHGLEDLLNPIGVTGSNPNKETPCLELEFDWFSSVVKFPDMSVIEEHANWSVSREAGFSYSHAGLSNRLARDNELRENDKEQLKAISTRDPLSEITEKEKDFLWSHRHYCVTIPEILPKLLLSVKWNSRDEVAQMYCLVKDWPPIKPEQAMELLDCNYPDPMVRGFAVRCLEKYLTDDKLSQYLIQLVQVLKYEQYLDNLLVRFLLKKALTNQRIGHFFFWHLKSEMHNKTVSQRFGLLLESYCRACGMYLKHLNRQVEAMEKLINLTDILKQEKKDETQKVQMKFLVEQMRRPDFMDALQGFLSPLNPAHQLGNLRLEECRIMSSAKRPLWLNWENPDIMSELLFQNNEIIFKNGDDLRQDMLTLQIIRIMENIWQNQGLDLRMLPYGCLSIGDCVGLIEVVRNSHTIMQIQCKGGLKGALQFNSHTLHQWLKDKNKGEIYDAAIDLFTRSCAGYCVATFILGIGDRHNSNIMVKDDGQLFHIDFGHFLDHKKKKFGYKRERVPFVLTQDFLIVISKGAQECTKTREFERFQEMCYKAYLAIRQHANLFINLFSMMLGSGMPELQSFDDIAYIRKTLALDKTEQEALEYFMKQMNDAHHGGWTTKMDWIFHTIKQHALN", "details": "Compound concentration 1000.0 nM"}},
  "note": "pKi: −log10 of the molar value.",
  "data": [
    {"smiles": "CC(=O)C1=C(C)N(c2cccc(C(F)(F)F)c2)C(=O)N[C@@H]1c1ccc(C#N)nc1", "note": "[BAY-678]", "values": [
      {"measurement": "residual activity", "setting": "[1]", "value": 100, "unit": "%"},
      {"measurement": "residual activity", "setting": "[2]", "value": 83.4, "unit": "%"},
      {"measurement": "inhibition", "setting": "[3]", "value": -1.17, "unit": "%"},
      {"measurement": "residual activity", "setting": "[4]", "value": 100, "unit": "%"},
      {"measurement": "residual activity", "setting": "[5]", "value": 100, "unit": "%"},
      {"measurement": "residual activity", "setting": "[6]", "value": 87.4, "unit": "%"},
      {"measurement": "inhibition", "setting": "[7]", "value": 9.75, "unit": "%"},
      {"measurement": "residual activity", "setting": "[8]", "value": 96.3, "unit": "%"},
      {"measurement": "inhibition", "setting": "[9]", "value": 50, "unit": "%"},
      {"measurement": "residual activity", "setting": "[10]", "value": 100, "unit": "%"},
      {"measurement": "residual activity", "setting": "[11]", "value": 100, "unit": "%"},
      {"measurement": "residual activity", "setting": "[12]", "value": 100, "unit": "%"},
      {"measurement": "inhibition", "setting": "[13]", "value": 20.2, "unit": "%"},
      {"measurement": "residual activity", "setting": "[14]", "value": 96.9, "unit": "%"},
      {"measurement": "residual activity", "setting": "[15]", "value": 85.3, "unit": "%"},
      {"measurement": "inhibition", "setting": "[16]", "value": 4.22, "unit": "%"},
      {"measurement": "residual activity", "setting": "[17]", "value": 100, "unit": "%"},
      {"measurement": "residual activity", "setting": "[18]", "value": 100, "unit": "%"},
      {"measurement": "residual activity", "setting": "[19]", "value": 100, "unit": "%"},
      {"measurement": "residual activity", "setting": "[20]", "value": 75.7, "unit": "%"},
      {"measurement": "residual activity", "setting": "[21]", "value": 85.1, "unit": "%"},
      {"measurement": "residual activity", "setting": "[22]", "value": 95.2, "unit": "%"},
      {"measurement": "residual activity", "setting": "[23]", "value": 100, "unit": "%"},
      {"measurement": "residual activity", "setting": "[24]", "value": 93.3, "unit": "%"},
      {"measurement": "residual activity", "setting": "[25]", "value": 75.4, "unit": "%"},
      {"measurement": "inhibition", "setting": "[26]", "value": 6.69, "unit": "%"},
      {"measurement": "residual activity", "setting": "[27]", "value": 100, "unit": "%"},
      {"measurement": "residual activity", "setting": "[28]", "value": 100, "unit": "%"},
      {"measurement": "residual activity", "setting": "[29]", "value": 91.2, "unit": "%"},
      {"measurement": "pKi", "setting": "[30]; read-out: Ki", "value": 5.51},
      {"measurement": "Ki", "setting": "[30]; read-out: pKi (converted)", "value": 2820, "unit": "nM"},
      {"measurement": "residual activity", "setting": "[31]", "value": 80.3, "unit": "%"},
      {"measurement": "residual activity", "setting": "[32]", "value": 94, "unit": "%"},
      {"measurement": "residual activity", "setting": "[33]", "value": 94.8, "unit": "%"},
      {"measurement": "residual activity", "setting": "[34]", "value": 100, "unit": "%"},
      {"measurement": "residual activity", "setting": "[35]", "value": 100, "unit": "%"},
      {"measurement": "residual activity", "setting": "[36]", "value": 86.7, "unit": "%"},
      {"measurement": "residual activity", "setting": "[37]", "value": 100, "unit": "%"},
      {"measurement": "residual activity", "setting": "[38]", "value": 94.6, "unit": "%"},
      {"measurement": "residual activity", "setting": "[39]", "value": 87.5, "unit": "%"},
      {"measurement": "residual activity", "setting": "[40]", "value": 95.9, "unit": "%"},
      {"measurement": "residual activity", "setting": "[41]", "value": 91.7, "unit": "%"},
      {"measurement": "residual activity", "setting": "[42]", "value": 100, "unit": "%"}
    ]}
  ]
}
